{
  "source": "the kinase profiling compilation of Christmann-Franck et al. (2016)",
  "test_in_all_cases": "radiometric filter-binding kinase assay",
  "key": {"[1]": {"target": "BRSK1 (human) (UniProt Q8TDC3)"}, "[2]": {"system": "AKT1 (human), P31749 [S473D]"}, "[3]": {"target": "MAP2K1 (human) (UniProt Q02750)", "sequence (Q02750 whole entry, looked up)": "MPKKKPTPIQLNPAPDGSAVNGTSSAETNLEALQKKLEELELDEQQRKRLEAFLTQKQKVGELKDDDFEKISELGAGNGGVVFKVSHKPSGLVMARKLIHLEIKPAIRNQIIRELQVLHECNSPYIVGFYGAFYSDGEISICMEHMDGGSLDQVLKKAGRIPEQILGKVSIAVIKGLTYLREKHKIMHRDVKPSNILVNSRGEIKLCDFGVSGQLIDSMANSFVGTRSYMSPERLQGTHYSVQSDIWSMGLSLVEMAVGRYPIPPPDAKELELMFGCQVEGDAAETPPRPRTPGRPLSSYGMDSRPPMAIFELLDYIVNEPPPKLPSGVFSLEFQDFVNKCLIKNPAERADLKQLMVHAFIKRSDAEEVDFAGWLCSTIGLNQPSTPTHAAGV"}, "[4]": {"target": "DYRK2 (human) (UniProt Q92630)", "sequence (Q92630 whole entry, looked up)": "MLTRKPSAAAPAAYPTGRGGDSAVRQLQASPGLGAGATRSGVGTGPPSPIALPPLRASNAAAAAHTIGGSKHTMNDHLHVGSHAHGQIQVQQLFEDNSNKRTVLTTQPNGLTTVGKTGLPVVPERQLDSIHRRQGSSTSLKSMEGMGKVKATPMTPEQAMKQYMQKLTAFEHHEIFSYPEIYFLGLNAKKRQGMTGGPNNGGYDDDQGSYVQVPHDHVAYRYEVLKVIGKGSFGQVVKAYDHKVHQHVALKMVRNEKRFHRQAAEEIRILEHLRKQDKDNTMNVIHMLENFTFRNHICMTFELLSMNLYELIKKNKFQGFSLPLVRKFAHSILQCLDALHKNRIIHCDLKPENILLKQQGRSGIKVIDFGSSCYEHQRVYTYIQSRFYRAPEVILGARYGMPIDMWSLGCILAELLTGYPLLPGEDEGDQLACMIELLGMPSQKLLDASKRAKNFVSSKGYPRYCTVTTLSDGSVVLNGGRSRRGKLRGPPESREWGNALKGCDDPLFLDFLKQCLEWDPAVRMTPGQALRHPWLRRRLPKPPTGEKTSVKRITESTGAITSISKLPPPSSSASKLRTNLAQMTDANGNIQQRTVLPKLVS"}, "[5]": {"target": "CHEK1 (human) (UniProt O14757)"}, "[6]": {"target": "CSNK2A1 (human) (UniProt P68400)"}, "[7]": {"target": "STK3 (human) (UniProt Q13188)"}, "[8]": {"target": "PAK6 (human) (UniProt Q9NQU5)"}, "[9]": {"target": "IKBKB (human) (UniProt O14920)"}, "[10]": {"target": "MKNK1 (human) (UniProt Q9BUB5)"}, "[11]": {"target": "PRKAA1 PRKAB2 PRKAG1 (human) (UniProt O43741+Q13131+P54619)", "sequence (O43741 whole entry, looked up)": "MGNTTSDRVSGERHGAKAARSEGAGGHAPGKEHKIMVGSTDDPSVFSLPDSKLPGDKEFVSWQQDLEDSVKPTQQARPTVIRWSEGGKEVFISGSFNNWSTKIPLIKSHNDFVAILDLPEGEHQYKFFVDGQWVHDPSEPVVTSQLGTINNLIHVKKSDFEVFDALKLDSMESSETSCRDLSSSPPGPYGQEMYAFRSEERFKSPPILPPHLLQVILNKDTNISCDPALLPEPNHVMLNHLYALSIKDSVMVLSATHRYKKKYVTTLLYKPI", "sequence (P54619 whole entry, looked up)": "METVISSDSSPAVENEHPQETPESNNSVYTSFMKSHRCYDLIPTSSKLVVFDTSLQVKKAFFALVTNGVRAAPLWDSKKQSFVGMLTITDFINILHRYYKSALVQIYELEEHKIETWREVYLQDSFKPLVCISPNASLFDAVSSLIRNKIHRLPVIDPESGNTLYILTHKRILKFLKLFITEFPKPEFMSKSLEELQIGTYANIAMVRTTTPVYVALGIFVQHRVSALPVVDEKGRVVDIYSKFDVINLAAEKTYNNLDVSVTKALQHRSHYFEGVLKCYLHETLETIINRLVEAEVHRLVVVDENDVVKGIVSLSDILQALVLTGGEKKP", "sequence (Q13131 whole entry, looked up)": "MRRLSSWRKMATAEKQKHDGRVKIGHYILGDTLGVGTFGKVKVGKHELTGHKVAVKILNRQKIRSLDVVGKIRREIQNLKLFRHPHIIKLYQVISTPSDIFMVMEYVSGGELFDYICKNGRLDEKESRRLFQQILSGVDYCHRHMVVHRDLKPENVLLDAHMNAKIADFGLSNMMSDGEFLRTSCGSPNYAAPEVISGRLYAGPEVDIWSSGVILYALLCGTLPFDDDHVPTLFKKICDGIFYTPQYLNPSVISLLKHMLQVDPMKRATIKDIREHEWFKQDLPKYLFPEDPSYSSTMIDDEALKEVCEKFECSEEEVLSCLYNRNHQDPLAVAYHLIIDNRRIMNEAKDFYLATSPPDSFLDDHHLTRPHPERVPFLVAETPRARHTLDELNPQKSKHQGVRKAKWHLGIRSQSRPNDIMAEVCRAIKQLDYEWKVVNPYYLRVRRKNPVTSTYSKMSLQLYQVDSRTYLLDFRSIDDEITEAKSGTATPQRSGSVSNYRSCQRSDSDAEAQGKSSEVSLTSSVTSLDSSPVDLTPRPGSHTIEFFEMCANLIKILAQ"}, "[12]": {"target": "PAK4 (human) (UniProt O96013)"}, "[13]": {"target": "MST4 (human) (UniProt Q9P289)"}, "[14]": {"system": "LCK (mouse)", "conditions": "accession and sequence are those of the human protein"}, "[15]": {"target": "MAPK12 (human) (UniProt P53778)"}, "[16]": {"system": "PAK2 (human), Q13177 [T402E]"}, "[17]": {"target": "CAMKK2 (human) (UniProt Q96RR4)"}, "[18]": {"target": "PLK1 (human) (UniProt P53350)"}, "[19]": {"target": "IKBKE (human) (UniProt Q14164)"}, "[20]": {"system": "AKT2 (human), P31751 [S474D]"}, "[21]": {"target": "YES1 (human) (UniProt P07947)"}, "[22]": {"target": "MAPK14 (human) (UniProt Q16539)"}, "[23]": {"target": "CDK2 CCNA2 (human) (UniProt P20248+P24941)"}, "[24]": {"target": "MAPK1 (human) (UniProt P28482)", "sequence (P28482 whole entry, looked up)": "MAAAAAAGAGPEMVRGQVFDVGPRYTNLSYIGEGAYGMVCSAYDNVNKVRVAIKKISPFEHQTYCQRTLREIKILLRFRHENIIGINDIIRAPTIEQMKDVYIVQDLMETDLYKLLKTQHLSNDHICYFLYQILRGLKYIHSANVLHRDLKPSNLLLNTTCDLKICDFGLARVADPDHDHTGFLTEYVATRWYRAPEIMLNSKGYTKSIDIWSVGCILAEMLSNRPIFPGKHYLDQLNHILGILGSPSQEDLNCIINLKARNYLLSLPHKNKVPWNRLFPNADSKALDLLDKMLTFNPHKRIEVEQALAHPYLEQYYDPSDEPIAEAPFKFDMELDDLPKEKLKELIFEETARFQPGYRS"}, "[25]": {"target": "MAPK13 (human) (UniProt O15264)", "sequence (O15264 whole entry, looked up)": "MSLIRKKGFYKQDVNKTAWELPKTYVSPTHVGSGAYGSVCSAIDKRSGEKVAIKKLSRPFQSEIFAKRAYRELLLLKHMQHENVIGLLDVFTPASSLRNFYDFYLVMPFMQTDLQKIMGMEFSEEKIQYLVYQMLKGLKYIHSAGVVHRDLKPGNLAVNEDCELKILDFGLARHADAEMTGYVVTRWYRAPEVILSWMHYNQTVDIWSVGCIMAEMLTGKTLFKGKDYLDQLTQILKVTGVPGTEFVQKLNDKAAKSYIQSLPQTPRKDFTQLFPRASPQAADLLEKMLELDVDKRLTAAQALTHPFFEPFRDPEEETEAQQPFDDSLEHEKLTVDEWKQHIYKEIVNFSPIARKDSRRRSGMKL"}, "[26]": {"target": "EPHB3 (human) (UniProt P54753)", "sequence (P54753 whole entry, looked up)": "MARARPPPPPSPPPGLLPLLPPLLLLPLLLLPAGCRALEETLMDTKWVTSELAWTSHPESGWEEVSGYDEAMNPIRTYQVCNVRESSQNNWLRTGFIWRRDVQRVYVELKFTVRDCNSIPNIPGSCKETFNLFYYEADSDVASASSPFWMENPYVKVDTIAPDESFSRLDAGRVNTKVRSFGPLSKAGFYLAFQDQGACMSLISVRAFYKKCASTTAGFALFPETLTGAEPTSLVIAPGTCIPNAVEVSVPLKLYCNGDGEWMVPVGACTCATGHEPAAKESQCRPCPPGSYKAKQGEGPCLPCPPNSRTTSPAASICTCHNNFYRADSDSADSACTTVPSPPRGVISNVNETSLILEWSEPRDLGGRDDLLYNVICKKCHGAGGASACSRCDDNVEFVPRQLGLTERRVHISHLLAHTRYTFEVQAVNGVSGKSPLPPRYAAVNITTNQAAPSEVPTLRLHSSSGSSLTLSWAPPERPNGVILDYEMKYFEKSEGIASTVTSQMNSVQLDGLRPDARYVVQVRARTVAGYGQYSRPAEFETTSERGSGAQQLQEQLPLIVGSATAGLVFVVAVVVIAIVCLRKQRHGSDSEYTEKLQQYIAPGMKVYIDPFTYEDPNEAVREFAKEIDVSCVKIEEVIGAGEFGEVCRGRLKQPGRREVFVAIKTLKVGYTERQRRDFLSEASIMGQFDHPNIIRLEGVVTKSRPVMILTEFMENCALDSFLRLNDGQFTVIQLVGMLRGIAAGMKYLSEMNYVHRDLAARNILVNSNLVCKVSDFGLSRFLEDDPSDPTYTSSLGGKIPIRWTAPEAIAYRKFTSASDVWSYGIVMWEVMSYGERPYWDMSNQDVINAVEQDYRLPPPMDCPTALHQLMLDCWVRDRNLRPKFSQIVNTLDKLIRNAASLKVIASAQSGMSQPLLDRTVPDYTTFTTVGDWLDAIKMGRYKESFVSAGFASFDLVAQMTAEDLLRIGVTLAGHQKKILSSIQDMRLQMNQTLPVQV"}, "[27]": {"target": "TBK1 (human) (UniProt Q9UHD2)"}, "[28]": {"target": "PHKG1 (human) (UniProt Q16816)"}, "[29]": {"target": "GCK (human) (UniProt Q12851)", "sequence (Q12851 whole entry, looked up)": "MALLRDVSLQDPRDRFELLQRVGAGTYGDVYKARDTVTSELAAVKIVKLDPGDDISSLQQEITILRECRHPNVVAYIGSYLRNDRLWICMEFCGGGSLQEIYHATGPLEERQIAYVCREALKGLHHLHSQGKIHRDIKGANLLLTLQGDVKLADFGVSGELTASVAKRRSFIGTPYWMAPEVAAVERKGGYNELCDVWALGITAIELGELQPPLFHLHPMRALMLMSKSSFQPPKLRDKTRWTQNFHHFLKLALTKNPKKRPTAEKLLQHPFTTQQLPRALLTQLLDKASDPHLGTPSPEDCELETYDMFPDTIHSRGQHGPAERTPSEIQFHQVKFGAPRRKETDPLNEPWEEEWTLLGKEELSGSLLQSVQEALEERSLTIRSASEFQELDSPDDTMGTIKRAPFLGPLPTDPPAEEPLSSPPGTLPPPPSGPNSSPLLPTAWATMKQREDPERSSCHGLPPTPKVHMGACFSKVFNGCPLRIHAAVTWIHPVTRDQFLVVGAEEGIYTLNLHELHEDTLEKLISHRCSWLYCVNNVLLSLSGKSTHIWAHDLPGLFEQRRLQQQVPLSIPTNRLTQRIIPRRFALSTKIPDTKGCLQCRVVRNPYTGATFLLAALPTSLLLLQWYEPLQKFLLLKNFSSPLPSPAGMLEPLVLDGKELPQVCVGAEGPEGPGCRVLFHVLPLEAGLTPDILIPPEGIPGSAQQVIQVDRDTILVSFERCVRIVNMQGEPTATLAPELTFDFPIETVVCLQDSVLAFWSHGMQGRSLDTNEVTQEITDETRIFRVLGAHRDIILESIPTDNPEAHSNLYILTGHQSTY"}},
  "data": [
    {"smiles": "CNc1nc(-c2ccc3c(N)n[nH]c3c2)cc(N2C[C@@H](C(=O)NC3CCCCC3)CC[C@H]2C)n1", "values": [
      {"measurement": "residual activity", "setting": "[1]; compound 0.01 µM", "result": 110, "unit": "%"},
      {"measurement": "residual activity", "setting": "[1]; compound 0.1 µM", "result": 95, "unit": "%"},
      {"measurement": "residual activity", "setting": "[1]; compound 1.0 µM", "result": 57, "unit": "%"},
      {"measurement": "residual activity", "setting": "[2]; compound 0.01 µM", "result": 179, "unit": "%"},
      {"measurement": "residual activity", "setting": "[2]; compound 0.1 µM", "result": 117, "unit": "%"},
      {"measurement": "residual activity", "setting": "[2]; compound 1.0 µM", "result": 97, "unit": "%"},
      {"measurement": "residual activity", "setting": "[3]; compound 0.01 µM", "result": 86, "unit": "%"},
      {"measurement": "residual activity", "setting": "[3]; compound 0.1 µM", "result": 101, "unit": "%"},
      {"measurement": "residual activity", "setting": "[3]; compound 1.0 µM", "result": 84, "unit": "%"},
      {"measurement": "residual activity", "setting": "[4]; compound 0.01 µM", "result": 100, "unit": "%"},
      {"measurement": "residual activity", "setting": "[4]; compound 0.1 µM", "result": 108, "unit": "%"},
      {"measurement": "residual activity", "setting": "[4]; compound 1.0 µM", "result": 102, "unit": "%"},
      {"measurement": "residual activity", "setting": "[5]; compound 0.01 µM", "result": 111, "unit": "%"},
      {"measurement": "residual activity", "setting": "[5]; compound 0.1 µM", "result": 106, "unit": "%"},
      {"measurement": "residual activity", "setting": "[5]; compound 1.0 µM", "result": 104, "unit": "%"},
      {"measurement": "residual activity", "setting": "[6]; compound 0.01 µM", "result": 103, "unit": "%"},
      {"measurement": "residual activity", "setting": "[6]; compound 0.1 µM", "result": 104, "unit": "%"},
      {"measurement": "residual activity", "setting": "[6]; compound 1.0 µM", "result": 94, "unit": "%"},
      {"measurement": "residual activity", "setting": "[7]; compound 0.01 µM", "result": 116, "unit": "%"},
      {"measurement": "residual activity", "setting": "[7]; compound 0.1 µM", "result": 128, "unit": "%"},
      {"measurement": "residual activity", "setting": "[7]; compound 1.0 µM", "result": 112, "unit": "%"},
      {"measurement": "residual activity", "setting": "[8]; compound 0.01 µM", "result": 108, "unit": "%"},
      {"measurement": "residual activity", "setting": "[8]; compound 0.1 µM", "result": 120, "unit": "%"},
      {"measurement": "residual activity", "setting": "[8]; compound 1.0 µM", "result": 124, "unit": "%"},
      {"measurement": "residual activity", "setting": "[9]; compound 0.01 µM", "result": 105, "unit": "%"},
      {"measurement": "residual activity", "setting": "[9]; compound 0.1 µM", "result": 112, "unit": "%"},
      {"measurement": "residual activity", "setting": "[9]; compound 1.0 µM", "result": 98, "unit": "%"},
      {"measurement": "residual activity", "setting": "[10]; compound 0.01 µM", "result": 106, "unit": "%"},
      {"measurement": "residual activity", "setting": "[10]; compound 0.1 µM", "result": 108, "unit": "%"},
      {"measurement": "residual activity", "setting": "[10]; compound 1.0 µM", "result": 111, "unit": "%"},
      {"measurement": "residual activity", "setting": "[11]; compound 0.01 µM", "result": 107, "unit": "%"},
      {"measurement": "residual activity", "setting": "[11]; compound 0.1 µM", "result": 111, "unit": "%"},
      {"measurement": "residual activity", "setting": "[11]; compound 1.0 µM", "result": 87, "unit": "%"},
      {"measurement": "residual activity", "setting": "[12]; compound 0.01 µM", "result": 108, "unit": "%"},
      {"measurement": "residual activity", "setting": "[12]; compound 0.1 µM", "result": 117, "unit": "%"},
      {"measurement": "residual activity", "setting": "[12]; compound 1.0 µM", "result": 106, "unit": "%"},
      {"measurement": "residual activity", "setting": "[13]; compound 0.01 µM", "result": 112, "unit": "%"},
      {"measurement": "residual activity", "setting": "[13]; compound 0.1 µM", "result": 108, "unit": "%"},
      {"measurement": "residual activity", "setting": "[13]; compound 1.0 µM", "result": 119, "unit": "%"},
      {"measurement": "residual activity", "setting": "[14]; compound 0.01 µM", "result": 112, "unit": "%"},
      {"measurement": "residual activity", "setting": "[14]; compound 0.1 µM", "result": 107, "unit": "%"},
      {"measurement": "residual activity", "setting": "[14]; compound 1.0 µM", "result": 114, "unit": "%"},
      {"measurement": "residual activity", "setting": "[15]; compound 0.01 µM", "result": 109, "unit": "%"},
      {"measurement": "residual activity", "setting": "[15]; compound 0.1 µM", "result": 110, "unit": "%"},
      {"measurement": "residual activity", "setting": "[15]; compound 1.0 µM", "result": 106, "unit": "%"},
      {"measurement": "residual activity", "setting": "[16]; compound 0.01 µM", "result": 105, "unit": "%"},
      {"measurement": "residual activity", "setting": "[16]; compound 0.1 µM", "result": 119, "unit": "%"},
      {"measurement": "residual activity", "setting": "[16]; compound 1.0 µM", "result": 105, "unit": "%"},
      {"measurement": "residual activity", "setting": "[17]; compound 0.01 µM", "result": 112, "unit": "%"},
      {"measurement": "residual activity", "setting": "[17]; compound 0.1 µM", "result": 123, "unit": "%"},
      {"measurement": "residual activity", "setting": "[17]; compound 1.0 µM", "result": 127, "unit": "%"},
      {"measurement": "residual activity", "setting": "[18]; compound 0.01 µM", "result": 95, "unit": "%"},
      {"measurement": "residual activity", "setting": "[18]; compound 0.1 µM", "result": 113, "unit": "%"},
      {"measurement": "residual activity", "setting": "[19]; compound 0.01 µM", "result": 114, "unit": "%"},
      {"measurement": "residual activity", "setting": "[19]; compound 0.1 µM", "result": 97, "unit": "%"},
      {"measurement": "residual activity", "setting": "[19]; compound 1.0 µM", "result": 74, "unit": "%"},
      {"measurement": "residual activity", "setting": "[20]; compound 0.01 µM", "result": 125, "unit": "%"},
      {"measurement": "residual activity", "setting": "[20]; compound 0.1 µM", "result": 118, "unit": "%"},
      {"measurement": "residual activity", "setting": "[20]; compound 1.0 µM", "result": 100, "unit": "%"},
      {"measurement": "residual activity", "setting": "[21]; compound 0.01 µM", "result": 122, "unit": "%"},
      {"measurement": "residual activity", "setting": "[21]; compound 0.1 µM", "result": 119, "unit": "%"},
      {"measurement": "residual activity", "setting": "[21]; compound 1.0 µM", "result": 101, "unit": "%"},
      {"measurement": "residual activity", "setting": "[22]; compound 0.01 µM", "result": 105, "unit": "%"},
      {"measurement": "residual activity", "setting": "[22]; compound 0.1 µM", "result": 109, "unit": "%"},
      {"measurement": "residual activity", "setting": "[22]; compound 1.0 µM", "result": 103, "unit": "%"},
      {"measurement": "residual activity", "setting": "[23]; compound 0.01 µM", "result": 104, "unit": "%"},
      {"measurement": "residual activity", "setting": "[23]; compound 0.1 µM", "result": 101, "unit": "%"},
      {"measurement": "residual activity", "setting": "[23]; compound 1.0 µM", "result": 105, "unit": "%"},
      {"measurement": "residual activity", "setting": "[24]; compound 0.01 µM", "result": 117, "unit": "%"},
      {"measurement": "residual activity", "setting": "[24]; compound 0.1 µM", "result": 111, "unit": "%"},
      {"measurement": "residual activity", "setting": "[24]; compound 1.0 µM", "result": 99, "unit": "%"},
      {"measurement": "residual activity", "setting": "[25]; compound 0.01 µM", "result": 106, "unit": "%"},
      {"measurement": "residual activity", "setting": "[25]; compound 0.1 µM", "result": 113, "unit": "%"},
      {"measurement": "residual activity", "setting": "[25]; compound 1.0 µM", "result": 108, "unit": "%"},
      {"measurement": "residual activity", "setting": "[26]; compound 0.01 µM", "result": 106, "unit": "%"},
      {"measurement": "residual activity", "setting": "[26]; compound 0.1 µM", "result": 107, "unit": "%"},
      {"measurement": "residual activity", "setting": "[26]; compound 1.0 µM", "result": 91, "unit": "%"},
      {"measurement": "residual activity", "setting": "[27]; compound 0.01 µM", "result": 110, "unit": "%"},
      {"measurement": "residual activity", "setting": "[27]; compound 0.1 µM", "result": 115, "unit": "%"},
      {"measurement": "residual activity", "setting": "[27]; compound 1.0 µM", "result": 109, "unit": "%"},
      {"measurement": "residual activity", "setting": "[28]; compound 0.01 µM", "result": 106, "unit": "%"},
      {"measurement": "residual activity", "setting": "[28]; compound 0.1 µM", "result": 108, "unit": "%"},
      {"measurement": "residual activity", "setting": "[28]; compound 1.0 µM", "result": 103, "unit": "%"},
      {"measurement": "residual activity", "setting": "[29]; compound 0.01 µM", "result": 109, "unit": "%"},
      {"measurement": "residual activity", "setting": "[29]; compound 0.1 µM", "result": 116, "unit": "%"},
      {"measurement": "residual activity", "setting": "[29]; compound 1.0 µM", "result": 101, "unit": "%"}
    ]}
  ]
}
